Assay [1] has as its target T1, human TAS2R7 (Homo sapiens, UniProt Q9NYW3, L71P).
T1 construct: RSS tag (first 45 amino acids of rat somatostatin receptor subtype 3, membrane export tag) (N); expressed in transfected cells
T1 sequence (Q9NYW3 with tags, fused parts or gaps L71P): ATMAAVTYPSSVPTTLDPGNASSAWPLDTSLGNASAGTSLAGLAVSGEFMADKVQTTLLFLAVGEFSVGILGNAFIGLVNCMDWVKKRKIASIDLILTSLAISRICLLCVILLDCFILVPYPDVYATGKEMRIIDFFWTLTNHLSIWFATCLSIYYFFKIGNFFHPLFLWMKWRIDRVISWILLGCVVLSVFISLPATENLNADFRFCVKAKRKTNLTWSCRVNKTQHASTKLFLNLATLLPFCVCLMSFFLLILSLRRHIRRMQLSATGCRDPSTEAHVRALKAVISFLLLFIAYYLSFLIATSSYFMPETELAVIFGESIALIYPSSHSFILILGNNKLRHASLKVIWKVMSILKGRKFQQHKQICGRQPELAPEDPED
Briefly: Fluo-4 calcium assay, HEK293T/Gα16-gustducin44 cells transiently expressing TAS2R7. In kind it is cell-based. The note with it: for TAS2R7 ΔF/F0: transiently transfected cells. The protocol:
On day 0, the HEK293T/Gα16-gustducin 44 cells were plated in 96-well black wall, clear-bottom plates at a density of 15,000 cells per well and grown overnight in growth media (DMEM with 10% (v/v) heat-inactivated fetal bovine serum, 2 mM L-glutamine, 100 units/ml penicillin, 100 μg/ml streptomycin).
On day 1, the media was changed to an antibiotic-free and serum-free DMEM. The cells were transfected with TAS2R7 using Lipofectamine 2000 (Invitrogen).
Per well of a 96-well plate, 150 ng of vector DNA (TAS2R7 expression vectors from example 1) was diluted in 12.5 μl of DMEM. In a second tube, 0.3 μl of Lipofectamine 2000 was diluted in 12.5 μl of DMEM and incubated for 5 min at room temperature. After the 5 min, both solutions were mixed and incubated for 20 min at RT. The growth medium in the plate was exchanged for 50 μl of DMEM and 25 μl of the lipofectamine/DNA mixture was incubated on the cells for 3-4 hours at 37° in a humidified atmosphere. This mixture was then replaced with an antibiotic-free, serum-containing DMEM.
24 hours post transfection, the cells were used in the Fluo-4 Calcium Assay as described in Example 3.
(§1) At day 0, the HEK293T cell line expressing Gα16-gustducin44 and a TAS2R7 bitter taste receptor formed as described in examples 2a or 2b was seeded in antibiotic-free growth medium (standard DMEM with 10% (v/v) heat-inactivated fetal bovine serum, 2 mM L-glutamine […]) into black wall/clear bottom 96-well plates, coated with poly(ethylenimine) (0.005% v/v) at a concentration of 15,000 cells per well and incubated for 48 hours in humidified atmosphere (37° C., 5% CO2).
(§2) At the time of the assay, the growth medium was discarded and the cells were in humidified atmosphere (37° C., 5% CO2) for 1 hour with […] of loading buffer consisting of 1.5 μM Fluo-4 AM and 2.5 mM probenecid (Sigma-Aldrich, St. Louis, Mo., U.S.) in DMEM.
(§3) Afterwards, the 96-well plate was washed 5 times with 100 μl of assay buffer (130 mM NaCl, 5 mM KCl, 10 mM HEPES, 2 mM CaCl2, and 5 mM dextrose, pH 7.4) per well, using an automated plate washer (BioTek). The plate was further incubated for 30 minutes at room temperature in the dark to allow for complete de-esterification of the Fluo-4. Afterwards the plate was washed 5 times with 100 μl of assay buffer per well, and reconstituted with 100 μl of assay buffer per well.
(§4) For assay reading the plate was placed in a Fluorometric Imaging Plate Reader (FLIPR) (FLIPR-TETRA™, Molecular Devices, Sunnyvale, Calif., US), and receptor activation was initiated by addition of 20 microliter of a tenfold concentrated agonist stock solution (to give the desired agonist end concentration when added to the 180 microliter assay buffer volume), which was prepared in assay buffer.
(§5) Fluorescence was continuously monitored for 20 seconds to give a signal baseline (averaged to give F0) prior to agonist addition and for 120 seconds after agonist addition. The change in signal divided by F0 gives ΔF/F0 indicated in the table, with ΔF being the maximum signal occurring within the 120 seconds minus the minimum signal (occurring within the 120 seconds after agonist addition).
(§6) The obtained calcium signals were corrected for the response of cells expressing only the G-Protein α subunit (Gα16-gustducin44) and normalized to the fluorescence of cells prior to the stimulus using ΔF/F0 (Fmax−Fmin/F0).
The intracellular calcium response following the addition of L-menthol was determined in a HEK293T cell line stably expressing Gα16-gustducin44 and transiently expressing TAS2R7, formed as described in example 2a.

For assay [2], the target named is T1, human TAS2R7. Kind of assay: Fluo-4 calcium assay, HEK293T/Gα16-gustducin44 cell line stably expressing TAS2R7. In kind it is cell-based. The conditions noted are these: stable cell line. The method, then: Cell lines that stably expresses TAS2R7 was generated by transfecting the pcDNA3.1Zeo-TAS2R7 construct into HEK293T/Gα16-gustducin 44 cells (formed as described in example 1). The host cell line HEK-293T is commercially available from the American Tissue Culture Collection (ATCC), ATCC®#CRL-11268.
TAS2R7 expressing cells were identified by their response to 2.6 mM L-menthol, which was determined via automated fluorimetric imaging on the FLIPR-TETRA™ (Molecular Devices, Sunnyvale, Calif., U.S.) as described in example 3. One clone was selected, resulting in the HEK293T/Gα16-gustducin 444/TAS2R7 cell line.
as §1, §2, §3, §4, §5
All data was collected from at least two independent experiments each carried out in triplicate.
A concentration-response analysis was performed and EC50 values were calculated by nonlinear regression using the function f(x)=(a−d)/(1+(x/C)^nh)+d; with a=minimum signal, d=maximum signal, nh=hill coefficient, C=EC50, and x=agonist concentration. EC50 is the molar concentration of an agonist which produces 50% of the maximum possible effective response for that agonist.
as §6
To confirm that the cell line formed in example 2b stably expresses the bitter taste receptor TAS2R7, a concentration-response curve for L-menthol was generated. […] The standard deviation (+/−STD) is also indicated.
Each sample (receptors as well as controls) contained a final concentration of 0.02% DMSO to allow for comparability of all examples below.

In assay [3] the test system is more than 15 of the other human TAS2Rs. Kind of assay: Activation test on other human TAS2Rs. In kind it is cell-based. The conditions noted are these: more than 15 other human TAS2Rs.
Assay [4] relates to HEK293T Gα16gustducin44 cells (that do not express TAS2R7). Briefly: Fluo-4 calcium assay, negative control HEK293T Gα16gustducin44 cells that do not express TAS2R7. Format: cell-based, human. The note with it: cells without TAS2R7.
The target of assay [5] is T2, TAS2R7 (Homo sapiens, UniProt Q9NYW3).
T2 sequence (Q9NYW3 1-318): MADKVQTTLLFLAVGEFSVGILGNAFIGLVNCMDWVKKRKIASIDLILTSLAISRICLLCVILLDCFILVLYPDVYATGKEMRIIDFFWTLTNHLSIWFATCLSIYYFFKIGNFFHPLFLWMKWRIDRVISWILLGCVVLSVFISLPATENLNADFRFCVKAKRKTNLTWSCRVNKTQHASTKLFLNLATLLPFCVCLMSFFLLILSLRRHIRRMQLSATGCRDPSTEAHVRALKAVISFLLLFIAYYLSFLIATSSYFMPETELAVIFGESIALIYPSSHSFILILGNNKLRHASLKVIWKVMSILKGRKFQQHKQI
The conditions noted are these: known from the art; cited from earlier work.

Each structure is given as a SMILES string.

The term EC50 denotes the concentration that produces a half-maximal response.

On to `CC1CC[C@H](C(C)C)[C@@H](O)C1` (stereo partly drawn) [D-menthol], for which the “activation of TAS2R7” value in assay [1] (similar results as for L-menthol) was “shown to activate TAS2R7”.
Consider `CC(C)[C@@H]1CC[C@@H](C)C[C@H]1O` [L-menthol], for which the “TAS2R7 ΔF/F0” value in assay [2] (L-menthol 0.01 mM) came out at 0.09; in assay [2] (L-menthol 0.02 mM) it was 0.09; in assay [2] (L-menthol 0.04 mM) it was 0.13; in assay [2] (L-menthol 0.08 mM), 0.12; in assay [2] (L-menthol 0.16 mM) it was 0.23; in assay [2] (L-menthol 0.33 mM) it was 0.61. Besides, the “TAS2R7 ΔF/F0” value in assay [2] (L-menthol 0.65 mM) is 1.03; in assay [2] (L-menthol 1.30 mM), 1.16; in assay [2] (L-menthol 2.60 mM), 0.92; in assay [1] (L-menthol 0.01 mM) it was 0.09; in assay [1] (L-menthol 0.02 mM), 0.08; in assay [1] (L-menthol 0.04 mM), 0.08. Also, the “TAS2R7 ΔF/F0” value is 0.10 in assay [1] (L-menthol 0.08 mM); 0.15 in assay [1] (L-menthol 0.16 mM); 0.34 in assay [1] (L-menthol 0.33 mM); 0.41 in assay [1] (L-menthol 0.65 mM); 0.53 in assay [1] (L-menthol 1.30 mM); 0.65 in assay [1] (L-menthol 2.60 mM). The “activation of TAS2R7” value in assay [2] is reported as “activated”. Further, the concentration giving a half-maximal response (EC50) in assay [2] (nonlinear regression of concentration-response, read-out: calculated EC50 value for TAS2R7) was 310 µM. Moreover, the “activation of other human TAS2Rs” value in assay [3] was “not to be activated”. Moreover, the “Neg. Control ΔF/F0” value in assay [4] (L-menthol 0.01 mM) was determined as 0.09; in assay [4] (L-menthol 0.02 mM) it was 0.08; in assay [4] (L-menthol 0.04 mM), 0.08; in assay [4] (L-menthol 0.08 mM) it was 0.10; in assay [4] (L-menthol 0.16 mM), 0.15; in assay [4] (L-menthol 0.33 mM), 0.34. For the same compound, the “Neg. Control ΔF/F0” value is 0.41 in assay [4] (L-menthol 0.65 mM), 0.53 in assay [4] (L-menthol 1.30 mM) and 0.65 in assay [4] (L-menthol 2.60 mM). The “change above the background signal in negative control” value in assay [4] is on record as “did not show a significant change above the background signal”. The “calcium signalling upon addition” value in assay [1] (cells transiently expressing human TAS2R7) is given as “significant concentration-dependent increase”.
On to `CCN(CC)CCCC(C)Nc1ccnc2cc(Cl)ccc12` (centres unmarked) [chloroquine], for which the “response of TAS2R7” value in assay [5] is “known to respond”.
Take `C=C[C@H]1C[N@@]2CC[C@H]1C[C@H]2[C@H](O)c1ccnc2ccc(OC)cc12` [quinine]: the “response of TAS2R7” value in assay [5] was “known to respond”.

(Values after patent publication US8557530B2, “Use of a TAS2R7 nucleic acid sequence to identify modulators” (Givaudan SA, priority 2008, dated 2013).)
